Results from patent US10100341B2, “Tailored oils produced from recombinant oleaginous microorganisms” (Corbion Biotech, Inc., priority 2011, dated 2018).

Key:
Volvox carteri = settings: 1.5 ug/ml zeocin; cited from earlier work
[1] = test system: Phaeodactylum tricornutum; settings: 50 ug/ml zeocin; cited from earlier work
Cylindrotheca fusiformis = settings: 1 mg/ml zeocin; cited from earlier work
[2] = test system: Nannochloropsis sp. W2J3B; settings: 2 ug/ml zeocin; cited from earlier work
Prototheca moriformis = experiment: Growth in thiamine-free medium (thiamine auxotrophy complementation); type: cell-based; settings: 2 μM precursor
Experimental: Thiamine prototrophy in Prototheca moriformis cells was examined using expression of exogenous THIC genes. […] To dissect the lesion responsible for thiamine auxotrophy at the biochemical level, the growth of Prototheca moriformis cells under five different regimes were examined:(1) in the presence of 2 μM thiamine hydrochloride; (2) without thiamine; (3) without thiamine, but with 2 μM hydroxyethyl thiazole (THZ); […] To observe the thiamine auxotrophy of wildtype Prototheca moriformis cells, it was necessary to first deplete cells of internal thiamine reserves. To test growth in medium without thiamine, cells were first grown to stationary phase in medium containing 2 μM thiamine and then the cells were diluted to an optical density at 750 nm (OD750) of approximately 0.05 in medium without thiamine. The diluted cells were then grown once more to stationary phase in medium without thiamine (about 2-3 days). These thiamine-depleted cells were used to inoculate cultures for growth studies in medium without thiamine Wildtype cells were grown in medium with glucose as the carbon source (with or without thiamine) and positive clones with the native transit peptide Coccomyxa C-169 THIC construct were grown in medium with sucrose as the sole carbon source. […]

Dunaliella salina = settings: 60 mg/L chloramphenicol; cited from earlier work
Chaetoceros sp. = settings: 500 ug/ml nourseothricin; cited from earlier work
Thalassiosira pseudonana = settings: 10 ug/ml nourseothricin; cited from earlier work
Haematococcus pluvialis = settings: 5 μM norflurazon; cited from earlier work
Dunaliella tertiolecta = settings: 1 mg/L phleomycin; cited from earlier work
[3] = test system: Closterium peracerosum-strigosum-littorale complex; settings: 3 ug/ml phleomycin; cited from earlier work
[4] = test system: Chlamydomonas reinhardtii; settings: 90 ug/ml spectinomycin; cited from earlier work
Gonium pectorale = settings: 0.06 ug/ml paromomycin; cited from earlier work
Chlorella ellipsoidea = settings: 30 ug/mL G418; cited from earlier work
Amphidinium sp. = settings: 3 mg/ml G418; cited from earlier work
[5] = test system: Symbiodinium microadriacticum; settings: 3 mg/ml G418; cited from earlier work
Cyclotella cryptica = settings: 50% artificial seawater medium, 100 ug/ml G418; cited from earlier work
Navicula saprophila = settings: artificial seawater medium, 100 ug/ml G418; cited from earlier work
[6] = test system: Prototheca moriformis (UTEX 1435); experiment: cDNA abundance by real-time RT-PCR under nitrogen depletion; type: cell-based; settings: after 24 hours of culture in low nitrogen medium
Experimental: A cDNA library was generated from Prototheca moriformis (UTEX 1435) using standard techniques. The Prototheca moriformis cells were grown for 48 hours under nitrogen replete conditions. […] After about 24 hours in culture, the nitrogen supply in the media was completely depleted. The collected samples were immediately frozen using dry ice and isopropanol. Total RNA was subsequently isolated from the frozen cell pellet samples and a portion from each sample was held in reserve for RT-PCR studies. The rest of the total RNA harvested from the samples was subjected to polyA selection. Equimolar amounts of polyA selected RNA from each condition was then pooled and used to generate a cDNA library in vector pcDNA 3.0 (Invitrogen). Roughly 1200 clones were randomly picked from the resulting pooled cDNA library and subjected to sequencing on both strands. Approximately 68 different cDNAs were selected from among these 1200 sequences and used to design cDNA-specific primers for use in real-time RT-PCR studies. RNA isolated from the cell pellet samples that were held in reserve was used as substrate in the real time RT-PCR studies using the cDNA-specific primer sets generated above. This reserved RNA was converted into cDNA and used as substrate for RT-PCR for each of the 68 gene specific primer sets. […] As discussed in the specification, nitrogen depletion/limitation is a known inducer of lipogenesis in oleaginous microorganisms. Fold increase refers to the fold increase in cDNA abundance after 24 hours of culture in low nitrogen medium.

[7] = test system: Prototheca moriformis (UTEX 1435); experiment: Steady state thioesterase mRNA level by real-time RT-PCR (promoter testing, normalized to cd189); settings: low nitrogen medium

Cc1c(N)nc([C@H](CC(N)=O)NC[C@H](N)C(N)=O)nc1C(=O)N[C@H](C(=O)N[C@H](C)[C@@H](O)[C@H](C)C(=O)N[C@H](C(=O)NCCC1=N[C@@H](c2nc(C(=O)NCCCCN=C(N)N)cs2)CS1)[C@@H](C)O)[C@@H](O[C@@H]1O[C@@H](CO)[C@@H](O)[C@H](O)[C@@H]1O[C@H]1O[C@H](CO)[C@@H](O)[C@H](OC(N)=O)[C@@H]1O)c1cnc[nH]1 [zeocin]
propagation of untransformed cells in medium comprising the agent (Volvox carteri): unable to be propagated | propagation of untransformed cells in medium comprising the agent [1]: unable to propagate | propagation of untransformed cells in medium comprising the agent (Cylindrotheca fusiformis): unable to propagate | propagation of untransformed cells in medium comprising the agent [2]: unable to propagate

Cc1ncc(CN)c(N)n1 [PYR, 2-methyl-4-amino-5-(aminomethyl)pyrimidine]
thiamine pyrophosphate production / growth without thiamine with precursor (Prototheca moriformis): can only produce thiamine pyrophosphate (TPP) if the PYR precursor is provided

O=C(N[C@H](CO)[C@H](O)c1ccc([N+](=O)[O-])cc1)C(Cl)Cl [chloramphenicol]
propagation of untransformed cells in medium comprising the agent (Dunaliella salina): unable to propagate

nourseothricin
propagation of untransformed cells in medium comprising the agent (Chaetoceros sp.): unable to propagate | propagation of untransformed cells in medium comprising the agent (Thalassiosira pseudonana): unable to propagate

CNc1cnn(-c2cccc(C(F)(F)F)c2)c(=O)c1Cl [norflurazon]
propagation of untransformed cells in medium comprising the agent (Haematococcus pluvialis): unable to propagate

phleomycin
propagation of untransformed cells in medium comprising the agent (Dunaliella tertiolecta): unable to be propagated | propagation of untransformed cells in medium comprising the agent [3]: unable to propagate

CN[C@@H]1[C@H](O)[C@H](NC)[C@H]2O[C@@]3(O)C(=O)C[C@@H](C)O[C@H]3O[C@@H]2[C@H]1O [spectinomycin]
propagation of untransformed cells in medium comprising the agent [4]: unable to propagate

NC[C@@H]1O[C@H](O[C@H]2[C@@H](O)[C@H](O[C@@H]3[C@@H](O)[C@H](N)C[C@H](N)[C@H]3O[C@H]3O[C@H](CO)[C@@H](O)[C@H](O)[C@H]3N)O[C@@H]2CO)[C@H](N)[C@@H](O)[C@@H]1O [paromomycin]
propagation of untransformed cells in medium comprising the agent (Gonium pectorale): unable to propagate

CN[C@@H]1[C@@H](O)[C@@H](O[C@@H]2[C@@H](O)[C@H](O[C@H]3O[C@H]([C@@H](C)O)[C@@H](O)[C@H](O)[C@H]3N)[C@@H](N)C[C@H]2N)OC[C@]1(C)O [G418]
propagation of untransformed cells in medium comprising the agent (Chlorella ellipsoidea): unable to be propagated | propagation of untransformed cells in medium comprising the agent (Amphidinium sp.): unable to be propagated | propagation of untransformed cells in medium comprising the agent [5]: unable to be propagated | propagation of untransformed cells in medium comprising the agent (Cyclotella cryptica): unable to propagate | propagation of untransformed cells in medium comprising the agent (Navicula saprophila): unable to propagate

B1: Amt02-Ammonium transporter 02 promoter/5′UTR: putative nitrogen-regulated promoter/5′UTR, SEQ ID NO: 61 (nucleic acid, listed as Prototheca moriformis)
DNA: TCACCAGCGGACAAAGCACCGGTGTATCAGGTCCGTGTCATCCACTCTAAAGAGCTCGACTACGACCTACTGATGGCCCTAGATTCTTCATCAAAAACGCCTGAGACACTTGCCCAGGATTGAAACTCCCTGAAGGGACCACCAGGGGCCCTGAGTTGTTCCTTCCCCCCGTGGCGAGCTGCCAGCCAGGCTGTACCTGTGATCGGGGCTGGCGGGAAAACAGGCTTCGTGTGCTCAGGTTATGGGAGGTGCAGGACAGCTCATTAAACGCCAACAATCGCACAATTCATGGCAAGCTAATCAGTTATTTCCCATTAACGAGCTATAATTGTCCCAAAATTCTGGTCTACCGGGGGTGATCCTTCGTGTACGGGCCCTTCCCTCAACCCTAGGTATGCGCACATGCGGTCGCCGCGCAACGCGCGCGAGGGCCGAGGGTTTGGGACGGGCCGTCCCGAAATGCAGTTGCACCCGGATGCGTGGCACCTTTTTTGCGATAATTTATGCAATGGACTGCTCTGCAAAATTCTGGCTCTGTCGCCAACCCTAGGATCAGCGGTGTAGGATTTCGTAATCATTCGTCCTGATGGGGAGCTACCGACTGCCCTAGTATCAGCCCGACTGCCTGACGCCAGCGTCCACTTTTGTGCACACATTCCATTCGTGCCCAAGACATTTCATTGTGGTGCGAAGCGTCCCCAGTTACGCTCACCTGATCCCCAACCTCCTTATTGTTCTGTCGACAGAGTGGGCCCAGAGGCCGGTCGCAGCC
Fold increased (cDNA abundance) [6]: 10.76 | steady state C. camphora thioesterase mRNA level relative to control (C. reinhardtii beta tubulin promoter) [7]: up to three

B2: Aat04-Amino acid transporter 04 promoter/5′UTR: putative nitrogen-regulated promoter/5′UTR, SEQ ID NO: 65 (nucleic acid, listed as Prototheca moriformis)
DNA: CGCGTGGAGCGGTGCGTGCGGATGCCGCGCGCCTGCCAAGGCCTTTTGTATGCCTGGCCTGGGAAGTTTCCTGACTGAAGCATCTTCAAGATGCTCTCTCACGACCAGCGACACCAACACCGTCACTTTTTGCCCCTCCTGCCGCAGGTGCCACTTTCTACTTTGACGTCTTCTCCAGGCGGTACATTGCGGGACTGAGCGCCAATTCGGCCAAGAACAGCGCTGTCGACTTGAGGAGGCAGGGGTCCGTCGACTCTGCCGAGTGACACGCCTTCGACCCGACTGTACTACGGCCTGCTGAAGAGTGGGTCTCGCCGGCCGGCGTGACCGGCCCTGTGCCCACAATCGACCATCTATTCGCTCCTTGTCATCTGGCGCCGTCAATTGCCCGCGACTTGACGGCAACTGGCTCGATCGAGTCGTATTGAAAAAGCACGTTTTGTCCTACAGGGCCGCGGTCCGTTACCAACGTGGTTCTCGTTAGGTTTTCGTCGGGCGGTGGTGCGCGAACTGTCCGATGCCATCCCGGCAAACCCCAGCAAGGTCGCCAGTCTGGTTCTGACGCAATAGAGTGCGTTTTGGGCCAGTCTAAAAATTCGTCTGGCATGACGTGGCTCCACATCGTACCCGGAGCCTGCCTTGGTAATGTGAGGCACCGGTGCCAACTCCATTATGGCAGGCATCGAGCGCGCAGGTGAGTACATGACCTTCCGTGAATTGGGAAGGCGAGCTTGTGTAACGCCTGCGATCGTGCCAGTGAGGCATCGTAAACTCAAAATATTTTGTAGAAAGTGTCTGATGCCTGGTGAGGCTGCGTAGGGCAAGGGCAAGCCCTTGGCAGATGGGTAATGGGTCCGGACCTCACAACAGCAACCCCGCGTCCCCCTTAGGGCCCCTGAGGCTCGATGGCAGGGCCAGCGAGCCCGCGGCCAAAGGGCGCCATCCCACGGTCGCCCAACGACTCCACGGGTCCTATACCTCATCTTGAATGGCACTAAAAACTATAGAATATCGGGCACTGGTGGGCGTCTGGGGTACAGCTGGCCGAGCGCAGTGGCAAACCCTAGGTCCCGCCTCAAGGGCGATTCCCGGGTCAATGACACGCAAGCAAGATCACATGGCGCGGTCCGCCTCGCGGCTCCACACCCAGGCCCTAGTTTCGCAACCCATAAATATCGCCCCGATACCATCATAAGCCAGCAAATAATTTTTTATCAGAGTTCCAAACCTCCTCAGCTGTGGGAAACCAGCCCACTCTGAACG
Fold increased (cDNA abundance) [6]: 10.95 | steady state C. camphora thioesterase mRNA level relative to control (C. reinhardtii beta tubulin promoter) [7]: up to five
